From paper PMC6632053, “Incorporation of Putative Helix-Breaking Amino Acids in the Design of Novel Stapled Peptides: Exploring Biophysical and Cellular Permeability Properties” (Molecules, 2019) come the findings set out here.

The test system of data set [1] is p53 responsive β-lactamase reporter in HCT116 cells. The data set is described as follows: p53 beta-lactamase reporter gene cellular functional assay. Conditions: p53 reporter assay, HCT116, read-out: Cellular (µM), cellular activity (EC50). The format is cell-based. Here is the method: HCT116 cells were stably transfected with a p53 responsive β-lactamase reporter and were seeded into a 384-well plate at a density of 8000 cells per well. Cells were maintained in McCoy’s 5A Medium with 10% fetal bovine serum (FBS), Blasticidin, and Penicillin/Streptomycin. The cells were incubated overnight, followed by removal of cell growth media and replacement with Opti-MEM either containing 0% FBS or 10% FBS. […] The final working concentration of DMSO was 0.5%. β-lactamase activity was detected using the ToxBLAzer Dual Screen (Invitrogen), as per the manufacturer’s instructions. Measurements were made using the Envision multiplate reader (Perkin–Elmer).
In general terms: Reporter assays use an easily measured gene product as a stand-in for the process of interest.

A short description of data set [2]: Circular dichroism (CD) α-helicity. Conditions: for Helicity (%): CD of free peptide, 25 °C, 1 mM Hepes pH 7.4, 5% methanol. In kind it is physicochemical. The protocol: A total of 5 µL of the 10 mM stock peptide was mixed with 45 µL of 100% methanol, and dried for 2 h in the SpeedVac concentrator (Thermo Scientific). The dried peptide was reconstituted in a buffer (1 mM Hepes pH 7.4 and 5% methanol) to a concentration of 1 mM. The peptide sample was placed in a quartz cuvette with a path length of 0.2 cm. The peptide concentration was determined by the absorbance of the peptide at […]. The CD spectrum was recorded from 300 to 190 nm using the Chirascan-plus qCD machine (Applied Photophysics, Surrey, UK), at 25 °C. All experiments were done in duplicates. The CD spectrum was converted to mean residue ellipticity, before deconvolution and estimation of the secondary structure components of the peptide using the CDNN software (distributed by Applied Photophysics).
For orientation: Circular dichroism is the unequal absorption of left and right circularly polarised light.

The target of a further data set is T1, human Mdm2 1–125 (Homo sapiens, UniProt Q00987).
T1 construct: GST (N); His6 (internal); TEV cleavage site ENLYFQG (internal); made in house; host or cells: Escherichia coli BL21 (DE3) Rosetta T1R
T1 sequence (Q00987 with tags, fused parts or gaps): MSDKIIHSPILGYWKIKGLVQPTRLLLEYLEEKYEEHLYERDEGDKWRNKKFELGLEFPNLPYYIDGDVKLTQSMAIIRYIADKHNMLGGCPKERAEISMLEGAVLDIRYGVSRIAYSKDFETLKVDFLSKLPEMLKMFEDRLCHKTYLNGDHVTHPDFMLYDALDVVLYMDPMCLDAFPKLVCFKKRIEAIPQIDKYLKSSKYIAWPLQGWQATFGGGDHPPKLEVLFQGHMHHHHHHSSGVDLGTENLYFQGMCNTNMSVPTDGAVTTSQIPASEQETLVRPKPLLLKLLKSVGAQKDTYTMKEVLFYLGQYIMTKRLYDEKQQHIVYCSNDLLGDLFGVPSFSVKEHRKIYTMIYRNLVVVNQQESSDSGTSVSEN
The data set is described as follows: Mdm2 binding assay (competitive fluorescence anisotropy/polarization). Conditions: competitive fluorescence polarization, read-out: Mdm2 (nM), Mdm2 binding (Kd). Here is the method:
The TEV (tobacco etch virus) cleavage site was changed from ENLYFQS to ENLYFQG to give a fusion protein with the following sequence:
Titrations were carried out with the concentration of Mdm2 held constant at 250 nM and the labeled peptide at 50 nM. The competing molecules were then titrated against the complex of the FAM-labeled peptide and protein. Apparent Kd values were determined by fitting the experimental data to the equations shown below:(2) r=r0+(rb−r0)×2(d^2−3e)cos(θ/3)−9/3Kd1+2(d^2−3e)cos(θ/3)−dd=Kd1+Kd2+[L]st+[L]t−[P]te=([L]t−[P]t)Kd1+([L]st−[P]t)Kd2+Kd1Kd2f=−Kd1Kd2[P]tθ=arcos[−2d^3+9de−27f/2(d^2−3e)^3] where [L]st and [L]t denote labeled ligand and total unlabeled ligand input concentrations, respectively. Kd2 is the dissociation constant of the interaction between the unlabeled ligand and the protein. In all competition experiments, it was assumed that [P]t > [L]st, otherwise considerable amounts of free labeled ligand would always be present and would interfere with measurements. Kd1 is the apparent Kd for the labeled peptide used and was experimentally determined as described in the previous paragraph. The FAM-labeled peptide was dissolved in dimethyl sulfoxide (DMSO) at 1 mM and diluted into the experimental buffer. Readings were carried out with an Envision Multilabel Reader (PerkinElmer). Experiments were carried out in PBS (2.7 mM KCl, 137mM NaCl, 10 mM Na2HPO4, and 2 mM KH2PO4 (pH 7.4)) and 0.1% Tween 20 buffer. All titrations were carried out in triplicate. Curve-fitting was carried out using Prism 4.0 (GraphPad). […] Negative control titrations of the ligands under investigation were also carried out with the fluorescently labeled peptide (in the absence of Mdm2) to ensure no interactions were occurring between the ligands and the FAM-labeled peptide.
Background: Polarisation of emitted light reports the rotation of a fluorescent probe.

Read-outs that look alike come from different tables or passages of the source. Bridge positions count the residues as written; N and C are the ends. Square brackets hold non-standard residues; d marks the D form. Peptide text beside a SMILES is read from it. Lys(N3) = [N-]=[N+]=NCCCC[C@H](N)C(=O)O; R8 = C=CCCCCCC[C@@](C)(N)C(=O)O; Cba = N[C@@H](CC1CCC1)C(=O)O; S5 = C=CCCC[C@](C)(N)C(=O)O; βAla = NCCC(=O)O Where only a bound is given, the exact number is not on record here.

As a reminder, the EC50 is the concentration needed to bring the measured effect to its halfway point. Broadly, the Kd is the equilibrium constant for the complex coming apart. For the compound `CC(=O)N[C@@H](CCCCN=[N+]=[N-])C(=O)NCCC(=O)N[C@@H](CC(C)C)C(=O)N[C@H](C(=O)N[C@@H](Cc1ccccc1)C(=O)N[C@]1(C)CCCCCCC=CCCC[C@@](C)(C(=O)N2CCC[C@H]2C(=O)N[C@@H](C)C(=O)N[C@@H](C)C(N)=O)NC(=O)[C@H](CC2CCC2)NC(=O)[C@H](CCC(N)=O)NC(=O)[C@H](C)NC(=O)[C@H](Cc2c[nH]c3ccccc23)NC(=O)[C@H](Cc2ccc(O)cc2)NC(=O)[C@H](CCC(=O)O)NC1=O)[C@@H](C)O` [Peptide S12P], in data set [1] (Table 2), the EC50 was 3.7 µM. Also, the “Helicity (%)” value in data set [2] (Table 2) is listed as 30.8%. Besides, the Kd at human Mdm2 1–125 (Table 2) was 45.7 nM.
Consider `CC(=O)N[C@@H](CC(C)C)C(=O)N[C@H](C(=O)N[C@@H](Cc1ccccc1)C(=O)N[C@]1(C)CCCCCCC=CCCC[C@@](C)(C(=O)N[C@@H](CO)C(=O)N[C@@H](C)C(=O)N[C@@H](C)C(N)=O)NC(=O)[C@H](CC2CCC2)NC(=O)[C@H](CC(C)C)NC(=O)[C@H](CCC(N)=O)NC(=O)[C@H](Cc2c[nH]c3ccccc23)NC(=O)[C@@H](Cc2ccc(O)cc2)NC(=O)[C@H](CCC(=O)O)NC1=O)[C@@H](C)O` [Y6 (D-Tyr)], for which the EC50 in data set [1] (Table 1) was 3.2 µM. Further, in data set [2] (Table 1), the “Helicity (%)” value came to 43.2%. Also, the Kd on human Mdm2 1–125 (Table 1) came out at 286 nM.
The matching figures for `CC(=O)N[C@@H](CC(C)C)C(=O)N[C@H](C(=O)N[C@@H](Cc1ccccc1)C(=O)N[C@]1(C)CCCCCCC=CCCC[C@@](C)(C(=O)N[C@@H](CO)C(=O)N[C@@H](C)C(=O)N[C@@H](C)C(N)=O)NC(=O)[C@H](CC2CCC2)NC(=O)[C@H](CC(C)C)NC(=O)[C@@H](CCC(N)=O)NC(=O)[C@H](Cc2c[nH]c3ccccc23)NC(=O)[C@H](Cc2ccc(O)cc2)NC(=O)[C@H](CCC(=O)O)NC1=O)[C@@H](C)O` [Q8(D-Gln)]: 2.1 µM, 27.1% and 22 nM.
On to `CC(=O)N[C@@H](CC(C)C)C(=O)N[C@H](C(=O)N[C@@H](Cc1ccccc1)C(=O)N[C@]1(C)CCCCCCC=CCCC[C@@](C)(C(=O)N[C@@H](CO)C(=O)N[C@@H](C)C(=O)N[C@@H](C)C(N)=O)NC(=O)[C@H](CC2CCC2)NC(=O)[C@H](CC(C)C)NC(=O)[C@H](CCC(N)=O)NC(=O)[C@H](Cc2c[nH]c3ccccc23)NC(=O)[C@H](Cc2ccc(O)cc2)NC(=O)[C@@H](CCC(=O)O)NC1=O)[C@@H](C)O` [E5(D-Glu)], for which the EC50 in data set [1] (Table 1) was found to be 1 µM. Moreover, the “Helicity (%)” value in data set [2] (Table 1) amounted to 38.2%. In addition, the Kd at human Mdm2 1–125 (Table 1) is 32 nM.
Turning to `CC(=O)N[C@@H](CC(C)C)C(=O)N[C@H](C(=O)N[C@@H](Cc1ccccc1)C(=O)N[C@]1(C)CCCCCCC=CCCC[C@@](C)(C(=O)N[C@@H](CO)C(=O)N[C@@H](C)C(=O)N[C@H](C)C(N)=O)NC(=O)[C@H](CC2CCC2)NC(=O)[C@H](CC(C)C)NC(=O)[C@H](CCC(N)=O)NC(=O)[C@H](Cc2c[nH]c3ccccc23)NC(=O)[C@H](Cc2ccc(O)cc2)NC(=O)[C@H](CCC(=O)O)NC1=O)[C@@H](C)O` [A14(D-Ala)], the EC50 in data set [1] (Table 1) stood at 0.5 µM. Further, the “Helicity (%)” value in data set [2] (Table 1) was 34.6%. In addition, the Kd at human Mdm2 1–125 (Table 1) stood at 18 nM.
`CC(=O)N[C@@H](CC(C)C)C(=O)N[C@H](C(=O)N[C@@H](Cc1ccccc1)C(=O)N[C@]1(C)CCCCCCC=CCCC[C@@](C)(C(=O)N[C@@H](CO)C(=O)N[C@@H](C)C(=O)N[C@@H](C)C(N)=O)NC(=O)[C@H](CC2CCC2)NC(=O)[C@H](CC(C)C)NC(=O)[C@H](CCC(N)=O)NC(=O)[C@H](Cc2c[nH]c3ccccc23)NC(=O)[C@H](C)NC(=O)[C@H](CCC(=O)O)NC1=O)[C@@H](C)O` [Peptide Y6A] (Ac-LTF[R8]EAWQL[Cba][S5]SAA-NH2; staple 4-11): in data set [1] (Table 1), the EC50 was found to be 0.55 µM. Also, the “Helicity (%)” value in data set [2] (Table 1) is recorded as 50.3%. The Kd at human Mdm2 1–125 (Table 1) came out at 38.9 nM.
Take `CC(=O)N[C@@H](CCCCN=[N+]=[N-])C(=O)NCCC(=O)N1CCC[C@H]1C(=O)N[C@H](C(=O)N[C@@H](Cc1ccccc1)C(=O)N[C@]1(C)CCCCCCC=CCCC[C@@](C)(C(=O)N[C@@H](CO)C(=O)N[C@@H](C)C(=O)N[C@@H](C)C(N)=O)NC(=O)[C@H](CC2CCC2)NC(=O)[C@H](CCC(N)=O)NC(=O)[C@H](C)NC(=O)[C@H](Cc2c[nH]c3ccccc23)NC(=O)[C@H](Cc2ccc(O)cc2)NC(=O)[C@H](CCC(=O)O)NC1=O)[C@@H](C)O` [Peptide L1P]: the EC50 in data set [1] (Table 2) worked out at 0.75 µM. In addition, the “Helicity (%)” value in data set [2] (Table 2) is 41.6%. Further, on human Mdm2 1–125 (Table 2), the Kd was 21.9 nM.
With `CC(=O)N[C@@H](CC(C)C)C(=O)N[C@H](C(=O)N[C@@H](Cc1ccccc1)C(=O)N[C@]1(C)CCCCCCC=CCCC[C@@](C)(C(=O)N[C@@H](CO)C(=O)N[C@H](C)C(=O)N[C@@H](C)C(N)=O)NC(=O)[C@H](CC2CCC2)NC(=O)[C@H](CC(C)C)NC(=O)[C@H](CCC(N)=O)NC(=O)[C@H](Cc2c[nH]c3ccccc23)NC(=O)[C@H](Cc2ccc(O)cc2)NC(=O)[C@H](CCC(=O)O)NC1=O)[C@@H](C)O` [A13(D-Ala)], the EC50 in data set [1] (Table 1) turned out to be 0.6 µM. In addition, in data set [2] (Table 1), the “Helicity (%)” value turned out to be 41.8%. Further, on human Mdm2 1–125 (Table 1), the dissociation constant Kd amounted to 17 nM.
The matching figures for `CC(=O)N[C@@H](CC(C)C)C(=O)N[C@H](C(=O)N[C@@H](Cc1ccccc1)C(=O)N[C@]1(C)CCCCCCC=CCCC[C@@](C)(C(=O)N[C@@H](CO)C(=O)N[C@@H](C)C(=O)N[C@@H](C)C(N)=O)NC(=O)[C@H](CC2CCC2)NC(=O)[C@H](C)NC(=O)[C@H](CCC(N)=O)NC(=O)[C@H](Cc2c[nH]c3ccccc23)NC(=O)[C@H](Cc2ccc(O)cc2)NC(=O)[C@H](CCC(=O)O)NC1=O)[C@@H](C)O` [Peptide L9A] (Ac-LTF[R8]EYWQA[Cba][S5]SAA-NH2; staple 4-11): 0.16 µM, 48.7% and 12 nM.
As for `CC(=O)N[C@@H](CCCCN=[N+]=[N-])C(=O)NCCC(=O)N[C@@H](CC(C)C)C(=O)N[C@H](C(=O)N[C@@H](Cc1ccccc1)C(=O)N[C@]1(C)CCCCCCC=CCCC[C@@](C)(C(=O)N[C@@H](CO)C(=O)N[C@@H](C)C(=O)N[C@@H](C)C(N)=O)NC(=O)[C@H](CC2CCC2)NC(=O)[C@H](CCC(N)=O)N(C)C(=O)[C@H](C)NC(=O)[C@H](Cc2c[nH]c3ccccc23)NC(=O)[C@H](Cc2ccc(O)cc2)NC(=O)[C@H](CCC(=O)O)NC1=O)[C@@H](C)O` [Q9(N-methyl L-Gln)], the EC50 in data set [1] (Table 2) was > 50 µM. For the same compound, the “α-helicity by CD” value in data set [2] is listed as < 30%. The “Helicity (%)” value in data set [2] (Table 2) is reported as 20.2%. Moreover, the Kd on human Mdm2 1–125 (Table 2) came to 211 nM.
Turning to `CC(=O)N[C@@H](CCCCN=[N+]=[N-])C(=O)NCCC(=O)NCC(=O)N[C@H](C(=O)N[C@@H](Cc1ccccc1)C(=O)N[C@]1(C)CCCCCCC=CCCC[C@@](C)(C(=O)N[C@@H](CO)C(=O)N[C@@H](C)C(=O)N[C@@H](C)C(N)=O)NC(=O)[C@H](CC2CCC2)NC(=O)[C@H](CCC(N)=O)NC(=O)CNC(=O)[C@H](Cc2c[nH]c3ccccc23)NC(=O)[C@H](Cc2ccc(O)cc2)NC(=O)CNC1=O)[C@@H](C)O` [L1G, E5G, A8G] (Ac-[Lys(N3)][βAla]GTF[R8]GYWGQ[Cba][S5]SAA-NH2; staple 6-13), the EC50 in data set [1] (Table 2) was determined as 1.7 µM. The “α-helicity by CD” value in data set [2] stood at 20.4%. The “Helicity (%)” value in data set [2] (Table 2) worked out at 20.4%. At human Mdm2 1–125 (Table 2), the Kd stood at 49.8 nM.
